Laboratory results as given in patent US9017689B2, “Peptides for vaccine against birch allergy” (Circassia Limited, priority 2010, dated 2015).
Read-outs that look alike come from different tables or passages of the source. Ends that are not written are not given here.

Columns and labels:
[1] = Solubility screening in trehalose matrices pH 2.65 to 7.03; assay type: physicochemical; details: for solubility: read-out: Solubility [mg per ml];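 on all read-outs here: test items are peptides, each checked for solubility in every trehalose matrix, the matrices made up in distilled deionised water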
Experimental: The solubility of each of the nine peptides was evaluated in each of the matrices in accordance with Appendix 1.
Each matrix was prepared at a concentration of 10 mM of the buffering agent.
The procedure indicated is for the preparation of 100 mL of each buffer, but alternative volumes can be prepared by adjusting the quantities. • 0.1M stock solutions of sodium citrate and potassium dihydrogen phosphate were prepared. • Weight of trehalose dihydrate equivalent to 260 mM was transferred to an appropriate mixing vessel containing 70-80 mL of distilled deionised water and allowed to dissolve. • 10 mL of the appropriate stock 0.1M buffer solution was added to the mixing vessel and stirred. • The pH of the matrix was adjusted to the desired value by adding 2 mM hydrochloric acid or 0.1M sodium hydroxide as required. • The solutions were finally diluted to 100 g weight and the pH re-assessed.

[2] = test system: Peripheral blood mononuclear cells (PBMCs); test: Cytokine release assay (IL-10, IL-13, IFN-g multiplex bead assay); assay type: cell-based, human; details: proportion of subjects in which peptide induced IL-13 or IFN-g above 100 pg/ml; 47 birch allergic subjects; peptide 100 μg/ml; 5 days
Experimental: Peripheral blood mononuclear cells (PBMCs) were isolated from heparinised blood by Ficoll density gradient centrifugation. […] Following stimulation, culture supernatants (100 μl) were harvested for testing by multiplex bead assay.
Multiplex cytokine bead assays (IL-10, IL-13, Interferon gamma (IFN-g)) were performed on thawed culture supernatants according to the manufacturer's instructions. Single measurements were performed for each culture supernatant sample. After completion of the multiplex assay, individual cytokine levels were determined by interpolation from the standard curve generated in the assay.

[3] = 2 mM HCl and 260 mM trehalose dihydrate, pH 2.65
[4] = 10 mM potassium dihydrogen phosphate and 260 mM trehalose dihydrate, pH 6.03
[5] = 10 mM potassium dihydrogen phosphate and 260 mM trehalose dihydrate, pH 7.03
[6] = 10 mM sodium citrate and 260 mM trehalose dihydrate, pH 3.01
[7] = 10 mM sodium citrate and 260 mM trehalose dihydrate, pH 3.99
[8] = 10 mM sodium citrate and 260 mM trehalose dihydrate, pH 5.02
[9] = 10 mM sodium citrate and 260 mM trehalose dihydrate, pH 6.01
[10] = aqueous buffer, 10 mM potassium dihydrogen phosphate and 260 mM trehalose dihydrate, pH 6.03
[11] = aqueous buffer, 10 mM potassium dihydrogen phosphate and 260 mM trehalose dihydrate, pH 7.03
[12] = aqueous buffer, 10 mM sodium citrate and 260 mM trehalose dihydrate, pH 3.01
[13] = aqueous buffer, 10 mM sodium citrate and 260 mM trehalose dihydrate, pH 3.99
[14] = aqueous buffer, 10 mM sodium citrate and 260 mM trehalose dihydrate, pH 5.02
[15] = aqueous buffer, 10 mM sodium citrate and 260 mM trehalose dihydrate, pH 6.01
[16] = water, 2 mM HCl and 260 mM trehalose dihydrate, pH 2.65

Sequence	Comments (solubility on preparation) [1, 3]	Solubility [mg per ml 'as is'] [1, 3]	Solubility [μmol per ml] [1, 3]	Solubility after 24 Hours [1, 3]	Commute (solubility on preparation) [1, 4]	Solubility [mg per ml 'as is'] [1, 4]	Solubility [μmol per ml] [1, 4]	Solubility after 24 Hours [1, 4]	Comments (solubility on preparation) [1, 5]	Solubility [mg per ml 'as is'] [1, 5]	Solubility [μmol per ml] [1, 5]	Solubility after 24 Hours [1, 5]	Comments (solubility on preparation) [1, 6]	Solubility [mg per ml 'as is'] [1, 6]	Solubility [μmol per ml] [1, 6]	Comments (solubility on preparation) [1, 9]	Solubility [mg per ml 'as is'] [1, 9]	Solubility [μmol per ml] [1, 9]	Solubility after 24 Hours [1, 9]	solubility [1, 15]	also measured
FNYETETTSVIPAARK [BIR1I]	Completely dissolved	19.50 mg per ml ‘as is’	9.222 μmol per ml	Completely dissolved	Completely dissolved	22.14 mg per ml ‘as is’	10.470 μmol per ml	Completely dissolved	Completely dissolved	20.78 mg per ml ‘as is’	9.827 μmol per ml	Completely dissolved	Completely dissolved	1.65 mg per ml ‘as is’	0.779 μmol per ml	Completely dissolved	7.45 mg per ml ‘as is’	3.522 μmol per ml	Completely dissolved	≥ 6.43 mg/mL	Solubility after 24 Hours [1, 6]: Completely dissolved; Comments (solubility on preparation) [1, 7]: Completely dissolved; Solubility [mg per ml 'as is'] [1, 7]: 2.28 mg per ml ‘as is’; Solubility [μmol per ml] [1, 7]: 1.078 μmol per ml; Solubility after 24 Hours [1, 7]: Completely dissolved; Comments (solubility on preparation) [1, 8]: Completely dissolved; Solubility [mg per ml 'as is'] [1, 8]: 2.30 mg per ml ‘as is’; Solubility [μmol per ml] [1, 8]: 1.089 μmol per ml; Solubility after 24 Hours [1, 8]: Completely dissolved; solubility [1, 10]: ≥ 19.1 mg/mL; solubility [1, 11]: ≥ 18 mg/mL; solubility [1, 12]: ≥ 1.42 mg/mL; solubility [1, 13]: ≥ 1.97 mg/mL; solubility [1, 14]: ≥ 1.99 mg/mL; solubility [1, 16]: ≥ 16.8 mg/mL
KEMGETLLRAVESYLLAHS [BIR09R]	–	–	–	–	–	–	–	–	–	–	–	–	–	–	–	Completely dissolved	4.92 mg per ml ‘as is’	1.993 μmol per ml	Completely dissolved	≥ 4.28 mg/mL	–
IKYMVIQGEAGAVIRGK (GIKYMVIQGEAGAVIRGK; Betulaceae) [Bir13, Bet v2-derived peptide]	–	–	–	–	–	–	–	–	–	–	–	–	–	–	–	–	–	–	–	–	% responders [2]: 23%
AERERIFKRFDANGEGK [Bir16A]	Completely dissolved	24.86 mg per ml ‘as is’	10.652 μmol per ml	Completely dissolved	Completely dissolved	21.54 mg per ml ‘as is’	9.229 μmol per ml	Completely dissolved	Completely dissolved	21.98 mg per ml ‘as is’	9.418 μmol per ml	Completely dissolved	Completely dissolved	7.17 mg per ml ‘as is’	3.074 μmol per ml	Completely dissolved	25.86 mg per ml ‘as is’	11.080 μmol per ml	Completely dissolved	≥ 22.4 mg/mL	Solubility after 24 Hours [1, 6]: Completely dissolved; Comments (solubility on preparation) [1, 7]: Completely dissolved; Solubility [mg per ml 'as is'] [1, 7]: 7.49 mg per ml ‘as is’; Solubility [μmol per ml] [1, 7]: 3.208 μmol per ml; Solubility after 24 Hours [1, 7]: Completely dissolved; Comments (solubility on preparation) [1, 8]: Completely dissolved; Solubility [mg per ml 'as is'] [1, 8]: 23.16 mg per ml ‘as is’; Solubility [μmol per ml] [1, 8]: 9.923 μmol per ml; Solubility after 24 Hours [1, 8]: Completely dissolved; solubility [1, 10]: ≥ 18.7 mg/mL; solubility [1, 11]: ≥ 19.1 mg/mL; solubility [1, 12]: ≥ 6.22 mg/mL; solubility [1, 13]: ≥ 6.49 mg/mL; solubility [1, 14]: ≥ 20.1 mg/mL; solubility [1, 16]: ≥ 21.6 mg/mL
